Experimental data reported in ChEMBL document CHEMBL3885861, “Open TG-GATES”.

Species on record: Rattus norvegicus
Experiment: Open TG-GATES - Regimen: Single
Format: toxicity, organism-based, Sprague-Dawley
Parameters: regimen Single, gender Male, age 6 weeks
Conditions: in vivo, po, 5 mg/kg, route gavage, dose level Low; for APTT / Bas / Eos / Fbg / Hb / Ht / Lym / MCH / MCHC / MCV / Mono / Neu / PT / Plat / RBC / Ret / WBC: tissue Blood; for KIDNEY_L / KIDNEY_R / KIDNEY_TOTAL: tissue Kidney; for LIVER: tissue Liver; for A/G / ALP / ALT / AST / BUN / CRE / Ca / Cl / DBIL / GLC / IP / K / LDH / Na / PL / RALB / TBIL / TC / TG / TP / gamma-GTP: tissue Plasma

SMILES: CC(=N)S [THIOACETAMIDE]
- TERMINAL_BW (3 h): 189.9 g
- APTT (3 h): 17.2 s
- Bas (3 h): 0%
- Eos (3 h): 0.6%
- Fbg (3 h): 225 mg/dL
- Hb (3 h): 13.1 g/dL
- Ht (3 h): 39.7%
- Lym (3 h): 81.4%
- MCH (3 h): 21.3 pg
- MCHC (3 h): 32.9%
- MCV (3 h): 64.6 fL
- Mono (3 h): 6.4%
- Neu (3 h): 11.4%
- PT (3 h): 12.1 s
- Plat (3 h): 105.8 x10_4/uL
- RBC (3 h): 614.6 x10_4/ul
- Ret (3 h): 9.2%
- WBC (3 h): 119.1 x10_2/uL
- KIDNEY_L (3 h): 0.9 g
- KIDNEY_R (3 h): 0.9 g
- KIDNEY_TOTAL (3 h): 1.7 g
- LIVER (3 h): 8.7 g
- A/G (3 h): 2.1
- ALP (3 h): 842.8 IU/L
- ALT (3 h): 31.2 IU/L
- AST (3 h): 64 IU/L
- BUN (3 h): 12.2 mg/dL
- CRE (3 h): 0.5 mg/dL
- Ca (3 h): 10.9 mg/dL
- Cl (3 h): 103.4 meq/L
- DBIL (3 h): 0 mg/dL
- GLC (3 h): 179.8 mg/dL
- IP (3 h): 9.2 mg/dL
- K (3 h): 4.4 meq/L
- LDH (3 h): 97.6 IU/L
- Na (3 h): 138.2 meq/L
- PL (3 h): 149.6 mg/dL
- RALB (3 h): 3.8 g/dL
- TBIL (3 h): 0.3 mg/dL
- TC (3 h): 85.8 mg/dL
- TG (3 h): 70.6 mg/dL
- TP (3 h): 5.6 g/dL
- gamma-GTP (3 h): 2 IU/L
- TERMINAL_BW (6 h): 185.4 g
- APTT (6 h): 17.8 s
- Bas (6 h): 0%
- Eos (6 h): 1%
- Fbg (6 h): 237.8 mg/dL
- Hb (6 h): 13.2 g/dL
- Ht (6 h): 40.2%
- Lym (6 h): 70.4%
- MCH (6 h): 21.2 pg
- MCHC (6 h): 32.9%
- MCV (6 h): 64.4 fL
- Mono (6 h): 9.4%
- Neu (6 h): 19%
- PT (6 h): 12.4 s
- Plat (6 h): 113.6 x10_4/uL
- RBC (6 h): 625.4 x10_4/ul
- Ret (6 h): 9.1%
- WBC (6 h): 94.9 x10_2/uL
- KIDNEY_L (6 h): 0.9 g
- KIDNEY_R (6 h): 0.9 g
- KIDNEY_TOTAL (6 h): 1.8 g
- LIVER (6 h): 8.2 g
- A/G (6 h): 2.2
- ALP (6 h): 729.4 IU/L
- ALT (6 h): 29.8 IU/L
- AST (6 h): 62.4 IU/L
- BUN (6 h): 10.2 mg/dL
- CRE (6 h): 0.6 mg/dL
- Ca (6 h): 10.4 mg/dL
- Cl (6 h): 104.4 meq/L
- DBIL (6 h): 0.002 mg/dL
- GLC (6 h): 179.6 mg/dL
- IP (6 h): 9 mg/dL
- K (6 h): 4.9 meq/L
- LDH (6 h): 76 IU/L
- Na (6 h): 137.2 meq/L
- PL (6 h): 132.2 mg/dL
- RALB (6 h): 3.8 g/dL
- TBIL (6 h): 0.4 mg/dL
- TC (6 h): 80.2 mg/dL
- TG (6 h): 41.4 mg/dL
- TP (6 h): 5.6 g/dL
- gamma-GTP (6 h): 1.2 IU/L
- TERMINAL_BW (9 h): 186.4 g
- APTT (9 h): 16.8 s
- Bas (9 h): 0%
- Eos (9 h): 0.6%
- Fbg (9 h): 216.2 mg/dL
- Hb (9 h): 12.8 g/dL
- Ht (9 h): 39.3%
- Lym (9 h): 79.2%
- MCH (9 h): 21.2 pg
- MCHC (9 h): 32.5%
- MCV (9 h): 65.1 fL
- Mono (9 h): 6.2%
- Neu (9 h): 13.8%
- PT (9 h): 12.3 s
- Plat (9 h): 102.7 x10_4/uL
- RBC (9 h): 606 x10_4/ul
- Ret (9 h): 9.4%
- WBC (9 h): 94.1 x10_2/uL
- KIDNEY_L (9 h): 0.9 g
- KIDNEY_R (9 h): 0.9 g
- KIDNEY_TOTAL (9 h): 1.7 g
- LIVER (9 h): 7.8 g
- A/G (9 h): 2.3
- ALP (9 h): 794.4 IU/L
- ALT (9 h): 32 IU/L
- AST (9 h): 61.6 IU/L
- BUN (9 h): 11.6 mg/dL
- CRE (9 h): 0.5 mg/dL
- Ca (9 h): 10.3 mg/dL
- Cl (9 h): 103.8 meq/L
- DBIL (9 h): 0.01 mg/dL
- GLC (9 h): 180 mg/dL
- IP (9 h): 9.8 mg/dL
- K (9 h): 4.4 meq/L
- LDH (9 h): 78.4 IU/L
- Na (9 h): 137.4 meq/L
- PL (9 h): 138.6 mg/dL
- RALB (9 h): 3.8 g/dL
- TBIL (9 h): 0.4 mg/dL
- TC (9 h): 84.4 mg/dL
- TG (9 h): 35.4 mg/dL
- TP (9 h): 5.5 g/dL
- gamma-GTP (9 h): 1.6 IU/L
- TERMINAL_BW (24 h): 198.9 g
- APTT (24 h): 16.7 s
- Bas (24 h): 0%
- Eos (24 h): 0.8%
- Fbg (24 h): 219.6 mg/dL
- Hb (24 h): 13.3 g/dL
- Ht (24 h): 40.1%
- Lym (24 h): 78.6%
- MCH (24 h): 22 pg
- MCHC (24 h): 33.2%
- MCV (24 h): 66.3 fL
- Mono (24 h): 9.4%
- Neu (24 h): 11.4%
- PT (24 h): 12.3 s
- Plat (24 h): 102.8 x10_4/uL
- RBC (24 h): 606.4 x10_4/ul
- Ret (24 h): 8.7%
- WBC (24 h): 127.7 x10_2/uL
- KIDNEY_L (24 h): 0.9 g
- KIDNEY_R (24 h): 0.9 g
- KIDNEY_TOTAL (24 h): 1.8 g
- LIVER (24 h): 9.7 g
- A/G (24 h): 2.1
- ALP (24 h): 891 IU/L
- ALT (24 h): 38.8 IU/L
- AST (24 h): 68.6 IU/L
- BUN (24 h): 17 mg/dL
- CRE (24 h): 0.5 mg/dL
- Ca (24 h): 10.6 mg/dL
- Cl (24 h): 103.8 meq/L
- DBIL (24 h): 0.01 mg/dL
- GLC (24 h): 179.6 mg/dL
- IP (24 h): 7.6 mg/dL
- K (24 h): 5.3 meq/L
- LDH (24 h): 84.2 IU/L
- Na (24 h): 136.6 meq/L
- PL (24 h): 157.6 mg/dL
- RALB (24 h): 3.9 g/dL
- TBIL (24 h): 0.3 mg/dL
- TC (24 h): 85.6 mg/dL
- TG (24 h): 110.8 mg/dL
- TP (24 h): 5.8 g/dL
- gamma-GTP (24 h): 1.6 IU/L
